Results on five compounds are retold here after US10874740B2, “5-ALA derivatives and use thereof” (UNIVERSITE DE GENEVE, priority 2015, dated 2020).

Where a name gives a salt, the structure may show the parent alone.

One data set concerns chick embryos. The data set can be described thus: In vivo chicken acute toxicity (chick embryo, intravenous). On the procedure:
(§1) 5-ALA-Hex is known for its pronounced acute toxicity after intravenous injection and the LD50 of the compounds of the invention was determined by escalating doses of compounds dissolved in milliQ™ water and pH adjusted to 7.4 administered to embryos via intravenous injection. The viability of chick embryos has been evaluated after 24 h after injection. […] This higher LD50 value is believed to be a consequence of the rapid conversion into 5-ALA-Hex. Therefore, the very high doses of Compound 1 that were tolerated by chick embryos (LD50 of 500 μmol/kg) are consistent since this compound is much more slowly converted into 5-ALA-Hex (and 5-ALA) in all tissues expressing alkaline phosphatase.

The next data set has as its system CAM U87Mg spheroid tumor. The data set can be described thus: In vivo CAM U87Mg spheroid tumor model, fluorescence imaging. Also on record: species or system chick. The note with it: Compound 7 100 μmol/kg; for tumor fluorescence signal / contrast: intravenous, Compound 1 300 μmol/kg, PpIX 100 μmol/kg, imaging 0, 30, 60, 120 min. On the procedure: Compounds of the invention were tested in vivo in using the chorioallantoic membrane (CAM) model U87-Mg tumor spheroids were obtained using a modified procedure (De Magalhaes et al., 2010, 20-26) using 2.5×10^4 cells/mL. Spheroids grew 4 days before inoculation into the CAM. On embryonic development day (EDD) 7, the hole in the eggshell was enlarged to allow access to the CAM vasculature, using a needle (25 Gauge) a hole was drilled in the CAM. A binocular lens Leica M80 (Wetzlar, Germany) was used to perform the inoculation. Once the hole was pierced in the CAM, the spheroid (approximately of 200 μm) was placed in the cavity beneath the hole. Cell medium (20 μL) was placed on the spheroid to allow the tumor to attach to the CAM membrane and develop. Then, the eggs were sealed with parafilm and returned to the incubator to let spheroids grow until EDD13. Compounds were injected intravenously into the CAM vasculature (10-40 μL), preferentially into a large blood vessels using a needle (gauge 33, 51 mm, tap N type) attached to a 100 μL syringe (Hamilton, Reno, Nev.). Fluorescence imaging of tumor nodules was done with 12-bit monochrome CDD camera (Retiga EX Q-Imaging Canada) connected to fluorescence Eclipse E600 FN microscope with a CFI achromat objective characterized by magnification 4×, numerical aperture of 0.10 and a working distance of 30 mm (Nikon, Tokyo, Japan). A conical holder was used to place the eggs during experimentation under the objective of fluorescence microscope. A mercury arc lamp HBO 103/W/2 (MS Scientific Berlin, Germany) was used to provide illumination. For the detection of PpIX a BV-2A cube (Nikon, Tokyo, Japan) with an excitation filter: 400-440 nm, a dichroic mirror (455 nm) and an emission filter (470 nm) was used. A hollow slider filter 650/50 nm was added. Band pass filter 560/40 was used to image the autofluorescence of tumors. All pictures were taken with a 90 ms exposure and gain set at 50. […] Data was analysed using multiple t-tests and statistical significance determined at each time point.

Another data set concerns U87-MG cell line. The data set is described as follows: Porphyrin accumulation (PpIX fluorescence) in U87-MG cells. It is filed as cell-based, human. Conditions: tested 0.1 to 3.3 mM. On the procedure:
(§2) Human bladder carcinoma cell line T24 (ATTC® HTB-4™), human lung adenocarcinoma cell line A549 (ATTC® CCL-185™), human prostate cancer cell line PC-3 (ATTC® CRL-1435™), and human glioblastoma cell line U-87Mg (ATTC® HTB-14™) were grown as monolayers and maintained in DMEM^+GlutaMAX™-I medium, F12K nutrient mix, and MEM, respectively. Culture media were supplemented with 10% fetal calf serum (FCS) and […] streptomycin and 100 IU/ml penicillin. Cells were cultivated at 37° C. in humidified 95% air and 5% CO2 atmosphere and routinely maintained by serial passage in a new medium every 2-5 days, depending on the cell type.
(§3) Cell viability was measured using an MTT assay. T24 (5000 cells/well), PC3 (12000 cells/well), A549 (10000 cells/well) and U87Mg (10000 cells/well) were seeded in a 96-well plate and grown 12 to 18 hours. Then, the medium was replaced with medium containing increasing concentrations of different compounds of the invention (from 0.1 to 3.3 mM) and PPIX fluorescence was recorded with a plate reader (Safire, Tecan, Switzerland) at different time points (1, 2, 4, 6, 8 and 24 h). Excitation wavelength was set at 405 nm and emission wavelength at 630 nm. […] After background subtraction, porphyrin accumulation was calculated according to the fluorescence intensity at 635 nm.

Data set [1] can be described thus: In vivo chicken acute toxicity (chick embryo, intravenous). Conditions: chicken (chick embryo), in vivo; chick embryos, intravenous injection, viability 24 h after injection. The method, then:
as §1

Data set [2] is described as follows: Chemical stability in buffer at three pH values (UPLC). It is filed as physicochemical. Conditions: 5 mM, 37° C., 20 mM buffers pH 4.00, 7.40, 8.90. The method, then:
Chemical stability was investigated for compounds of the invention as compared to the known ester ALA-Hex as follows: Chemical stability was assayed at three different pH value by dissolving the compound of interest (or ALA-Hex control) in an appropriate buffer (pH=4.00 acetate buffer; pH=7.40 phosphate buffer; and pH 8.90 borate buffer). The buffer concentration was 20 mM. The solution was kept at 37° C. and assayed at different time points. Quantification of the starting material and degradation products was performed by UPLC using the Thermo Scientific Accela UPLC-MS system. The column used was Macherey-Nagel Nucleodur C18 Gravity 50/2 1.8 μm. 10 μL aliquots were injected and eluted using 10% acetonitrile and 90% ammonium formate buffer (10 mM) isocratic elution. The column was kept at 40° C. and the flow rate was 0.4 mL/min. The quantification was performed by integrating AUCs of the chromatograms of the peaks of interest at 220 nm.

A further data set deals with T24 cell line. The data set can be described thus: Porphyrin accumulation (PpIX fluorescence) in T24 cells. It is filed as cell-based, human. Conditions: tested 0.1 to 3.3 mM. On the procedure: as §2, §3
Another data set concerns PC3 cell line. The data set is described as follows: Porphyrin accumulation (PpIX fluorescence) in PC3 cells. Conditions: for porphyrin synthesis capability (fluorescence kinetics) compared to ALA-hex: 1 mM; for concentration for optimal (highest) porphyrin formation: tested 0.1 to 3.3 mM. The class given is cell-based, human. The method, then: as §2
Cell viability was measured using an MTT assay. T24 (5000 cells/well), PC3 (12000 cells/well), A549 (10000 cells/well) and U87Mg (10000 cells/well) were seeded in a 96-well plate and grown 12 to 18 hours. Then, the medium was replaced with medium containing increasing concentrations of different compounds of the invention (from 0.1 to 3.3 mM) and PPIX fluorescence was recorded with a plate reader (Safire, Tecan, Switzerland) at different time points (1, 2, 4, 6, 8 and 24 h). Excitation wavelength was set at 405 nm and emission wavelength at 630 nm. After 24 hours of incubation with different products, the cells were washed twice with DPBS and fresh medium was put into each well. They were then either irradiated with a light dose of 10 J/cm^2 or kept in the dark. After background subtraction, porphyrin accumulation was calculated according to the fluorescence intensity at 635 nm.

For the next data set, the system named is A549 cell line. The data set is described as follows: Porphyrin accumulation (PpIX fluorescence) in A549 cells. It is filed as cell-based, human. Conditions: tested 0.1 to 3.3 mM. On the procedure:
as §2, §3

Data set [3] can be described thus: Nanoassembly formation and size by Dynamic Light scattering (DLS). The class given is physicochemical. The note with it: for formation of nanoassemblies in aqueous solution: ethanol solution added dropwise to MiliQ water; for average diameter of particles (DLS): nanomicelles 1 mg/mL in water. The method, then: 1 mg of compound 4 or compound 6 was dissolved in ethanol (300 μL). This solution was slowly added dropwise using a microsyringe to MiliQ water (1.2 mL) under magnetic stirring (500 RPM). […] The organic solvent was evaporated under reduced pressure (100 mbar) at 40° C. yielding the final solution of nanomicelles of 1 mg/mL which were analysed by Dynamic Light scattering (DLS) using Zetasizer Nano ZS machine (Malvern) and stored at ambient temperature. Dynamic Light scattering (DLS) results are presented under FIG. 4 for compound 4 (A) and for compound 6 (B) and show a high homogeneity in size of the particule population with an average diameter of about 73 nm for compound 4 and 98.5 nm for compound 6.

Data set [4] deals with alkaline phosphatase from calf intestine. The data set can be described thus: In vitro enzymatic activation by alkaline phosphatase (UPLC). The class given is biochemical. The note with it: borate buffer pH 8.90, 0.5 mM magnesium chloride, 1 U to 100 U alkaline phosphatase, 37° C. The method, then:
The ability of compounds of the invention to release ALA in presence of a phosphatase was investigated as follows: In vitro activation of compounds of interest by alkaline phosphatase was assayed by dissolving the compound of the invention (or ALA-Hex control) in 20 mM borate buffer at pH 8.90 containing 0.5 mM magnesium chloride and 1 U to 100 U of alkaline phosphatase from calf intestine (Applichem). The solution was kept at 37° C. and assayed at different time points. Quantification of the starting material and degradation products was performed by UPLC using the Thermo Scientific Accela UPLC-MS system. The column used was Macherey-Nagel Nucleodur C18 Gravity 50/2 1.8 μm. […] aliquots were injected and eluted using appropriate acetonitrile and ammonium formate buffer (10 mM) ratio with isocratic elution according to the compound of invention. The quantification was performed by integrating AUCs of the chromatograms of the peaks of interest at 220 nm.

Regarding `CCCCCCOC(=O)CCC(=O)CN` [Compound 5-ALA-Hex, 5-ALA-hexyl ester, reference compound], the 50% lethal dose (LD50) (as a rule, the dose expected to kill half of the subjects tested) with chick embryos (intravenous injection, viability 24 h after injection) stood at 75 µmol/kg.
In the case of `CCCCCCOC(=O)CCC(=O)CNP(=O)(O)Oc1ccccc1` [Compound 1, Triethylammonium salt of hexyl 5-((hydroxy(phenoxy)phosphoryl)amino)-4-oxopentanoate], the “tumor fluorescence signal / contrast” value with CAM U87Mg spheroid tumor was “delayed onset of the fluorescence signal but a robust contrast”. For the same compound, the “concentration for optimal (highest) porphyrin formation” value in the data set with U87-MG cell line was 1.0 mM; with T24 cell line, 3.3 mM; in the data set with PC3 cell line, 3.3 mM; with A549 cell line, 3.3 mM. The same compound came in with an LD50 at 24 h in data set [1] of 500 µmol/kg. Further, in the data set on chick embryos, the “increase in LD50 compared to 5-ALA-Hex” value was 7 fold. Besides, in data set [2], the “chemical stability (% of compound remaining in solution versus time) as compared to ALA-Hex” value was “increased chemical stability”. The “porphyrin synthesis capability (fluorescence kinetics) compared to ALA-hex” value in the data set with PC3 cell line is listed as “comparable porphyrin synthesis capability”.
Consider `CCCCCCOC(=O)CCC(=O)CNP(=O)(NCC(=O)CCC(=O)OCCCCCC)OCCC/C(C)=C/CC/C(C)=C/CC/C=C(\C)CC/C=C(\C)CCC=C(C)C` [Compound 6, Bis-hexyl 5-((hydroxy(((4E,8E,12E,16E)-4,8,13,17,21-pentamethyldocosa-4,8,12,16,20-pentaen-1-yl)oxy)phosphoryl)bis-amino)-4-oxopentanoate], for which, in [3], the “formation of nanoassemblies in aqueous solution” value is listed as “Nanoassemblies formed spontaneously” and the “average diameter of particles (DLS)” value is approximately 98.5 nm.
On the same counts, the results for `CCCCCCOC(=O)CCC(=O)CNP(=O)(O)OCCC/C(C)=C/CC/C(C)=C/CC/C=C(\C)CC/C=C(\C)CCC=C(C)C` [Compound 4, Hexyl 5-((hydroxy(((4E,8E,12E,16E)-4,8,13,17,21-pentamethyldocosa-4,8,12,16,20-pentaen-1-yl)oxy)phosphoryl)amino)-4-oxopentanoate] are “Nanoassemblies formed spontaneously” and “about 73 nm”.
On to `CCCCCCOC(=O)CCC(=O)CNC(=O)OCOP(=O)(O)O` [Compound 7, hexyl 4-oxo-5-((((phosphonooxy)methoxy)carbonyl)amino)pentanoate], for which, in the data set on CAM U87Mg spheroid tumor (intravenous into CAM vasculature), the “time post injection at which fluorescence started to outline the tumors” value was 30 min. Besides, the “tumor fluorescence signal / contrast” value in the data set with CAM U87Mg spheroid tumor was “excellent and statistically significant signal to background at 1 h and also at 2 h”. Moreover, the “concentration for optimal (highest) porphyrin formation” value with U87-MG cell line turned out to be 0.1 mM; in the data set with T24 cell line, 0.1 mM; in the data set with PC3 cell line it was 0.33 mM; in the data set on A549 cell line it was 0.33 mM. This compound displayed an LD50 at 24 h in [1] of 200 µmol/kg. The “increase in LD50 compared to 5-ALA-Hex” value in the data set with chick embryos was “several fold”. Moreover, the “chemical stability (% of compound remaining in solution versus time) as compared to ALA-Hex” value in data set [2] was “increased chemical stability”. Also, the “release of ALA upon activation of a phosphatase” value in data set [4] is reported as “slower than the one from compound 1”. Moreover, in the data set on PC3 cell line, the “porphyrin synthesis capability (fluorescence kinetics) compared to ALA-hex” value is on record as “comparable porphyrin synthesis capability”.
